Reference: PMC8270334, “Design, Sustainable Synthesis and Biological Evaluation of a Novel Dual α2A/5-HT7 Receptor Antagonist with Antidepressant-Like Properties” (Molecules, 2021)

Experiments:
α1-AR = assay: radioligand binding, displacement of [3H]prazosin from α1-adrenoreceptors; conditions: rat cerebral cortex, ± SEM
Protocol: The brains were homogenized in 20 volumes of ice-cold 50 mM Tris–HCl buffer (pH 7.6) and centrifuged at 20,000 × g for 20 min (0–4 °C). The cell pellet was resuspended in the Tris–HCl buffer and centrifuged again. Radioligand binding assays were performed in plates (MultiScreen/Millipore). […] The incubation was terminated by rapid filtration over glass fibre filters (Whatman GF/C) using a vacuum manifold (Millipore). The filters were then washed twice with the assay buffer and placed in scintillation vials with a liquid scintillation cocktail. Radioactivity was measured in a WALLAC 1409 DSA liquid scintillation counter. All assays were made in duplicate.

α2B-adrenergic receptor = molecular target: T1, α2B-adrenergic receptor (Homo sapiens, UniProt P18089); assay: intrinsic activity (antagonist) assay, α2B AequoScreen cell line, aequorin calcium mobilization; assay type: cell-based; conditions: AequoScreen cells, ± SEM, two independent experiments
T1 sequence (P18089 1-450): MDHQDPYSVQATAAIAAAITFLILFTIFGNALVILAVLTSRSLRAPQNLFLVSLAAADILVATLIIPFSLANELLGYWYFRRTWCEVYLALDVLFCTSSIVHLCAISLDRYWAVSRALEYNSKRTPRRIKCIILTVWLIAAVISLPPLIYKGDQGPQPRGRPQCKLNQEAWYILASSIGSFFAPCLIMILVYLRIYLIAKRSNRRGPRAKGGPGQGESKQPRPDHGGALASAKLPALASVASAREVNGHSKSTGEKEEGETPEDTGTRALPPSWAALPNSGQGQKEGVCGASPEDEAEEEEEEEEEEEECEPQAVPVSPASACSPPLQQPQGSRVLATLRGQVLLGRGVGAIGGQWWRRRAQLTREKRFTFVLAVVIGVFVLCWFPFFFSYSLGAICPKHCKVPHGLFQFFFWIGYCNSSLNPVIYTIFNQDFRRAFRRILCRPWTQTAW
Protocol: The intrinsic activity assays for the α2B-adrenergic receptor were assessed by luminescence detection of calcium mobilization using the recombinant expressed jellyfish photoprotein, aequorin. Measurements were performed with adrenergic α2B AequoScreen cell line (PekinElmer). The cell density in 96-well format measurements was 5000 cells per well. Cell harvesting, coelenterazine h (Invitrogen, cat. no. C 6780) loading and preparation were done according to instructions presented in the AequoScreen Starter Kit Manual (PerkinElmer). Compound concentration series (50 μL/well) were diluted in 0.1% BSA (Intergen) containing assay buffer (D-MEM/F-12, Invitrogen cat. no. 11039) and prepared in white ½ Area Plate–96 well microplates (PerkinElmer,). The cell suspension was dispensed on the ligands using the POLARstar optima reader injectors. For the antagonist assay, cells were injected (50 μL) into the assay plate with antagonists (50 μL) using the POLARstar optima reader. The antagonist dilution series with four replicates were prepared as instructed in the AequoScreen Starter Kit Manual at the concentrations from 10^–11 to 10^–6 M/L. The agonist used for […] was Oxymetazoline (Sigma, cat. no. O2378), which at a single concentration was injected (50 μL, final concentration EC80) on the preincubated (15–20 min) mixture of cells and antagonist, and the emitted light was recorded for 20 s.

5-HT1AR = molecular target: T2, 5-HT1AR (Homo sapiens, UniProt P08908); assay: functional profiling at 5-HT1AR, cAMP-based assays (Eurofins); assay type: cell-based; conditions: cAMP-based assay; for 5-HT1AR antagonist property: at 1 µM; for EC50: read-out: 5-HT1AR agonist activity EC50
T2 construct: Eurofins Scientific, France
T2 sequence (P08908 1-422): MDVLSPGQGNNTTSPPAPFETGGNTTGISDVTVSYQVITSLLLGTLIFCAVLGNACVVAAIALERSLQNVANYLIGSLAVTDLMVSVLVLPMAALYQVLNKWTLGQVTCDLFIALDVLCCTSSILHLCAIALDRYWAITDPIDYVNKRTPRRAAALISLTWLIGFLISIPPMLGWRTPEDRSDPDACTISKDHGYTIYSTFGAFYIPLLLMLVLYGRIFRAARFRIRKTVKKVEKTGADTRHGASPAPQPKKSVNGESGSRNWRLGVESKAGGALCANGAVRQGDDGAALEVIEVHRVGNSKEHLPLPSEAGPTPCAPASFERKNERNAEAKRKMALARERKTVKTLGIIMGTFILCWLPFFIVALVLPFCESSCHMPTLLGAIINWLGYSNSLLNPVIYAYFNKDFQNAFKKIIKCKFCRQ

Albino Swiss mice = assay: spontaneous locomotor activity; assay type: in vivo; conditions: ip
Protocol: Adult male Albino Swiss mice (CD-1, 8 weeks old, 25–30 g: Jagiellonian University Medical College, Krakow, Poland) were used in the study. Animals were housed in groups of 8 in a transparent plastic cage (382 × 220 × 150 mm) at room temperature (22 ± 2 °C), on a 12 h light/dark cycle with ad libitum access to food and water. Mice were handled for one week before starting the experimental procedures. The separate groups of animals were used in the forced swim test and in the locomotor studies. All studies were approved by the Institutional Animal Care and Ethics Committee of the Jagiellonian University (approval no.: 80/2015).
Tested compounds were dissolved with 1% Tween 80. […] The control animals were given ip injections of the 2% DMSO in 1% Tween 80 (vehicle). The volume of vehicle or drug solutions was 10 mL/kg.
Locomotor activity was recorded with an Opto M3 multichannel activity monitor, photoresistor actometers connected to a counter for the recording of light-beam interruptions (MultiDevice Software v1.3, Columbus Instruments, Columbus, OH, USA). The mice, after being placed into the cages individually, had their activity evaluated between the 2nd and the 6th minute. The chosen time period corresponded with the time interval considered in the FST. Spontaneous locomotor activity was evaluated as the distance travelled plus the movements of climbing by animals.

[1] = doses effective in the FST (6: 4, 8 mg/kg; mirtazapine: 16 mg/kg)

CC1(C)Cc2cccc(OCCN3CCC(NS(=O)(=O)c4ccc(F)cc4)CC3)c2O1 [Compound 6, 4-Fluoro-N-{1-[2-(2,2-dimethyl-2,3-dihydrobenzofuran-7-yloxy)ethyl]piperidin-4-yl} benzenesulfonamide]
Ki (α1-AR): 761 ± 86 nM | Kb (α2B-adrenergic receptor): 103 ± 25 nM | 5-HT1AR antagonist property (5-HT1AR): no antagonist property | EC50 (5-HT1AR): > 4 µM | influence on spontaneous locomotor activity (sedation) (Albino Swiss mice; [1]): induced sedation

CC1(C)Cc2cccc(OCCN3CCC(NS(=O)(=O)c4cc(Cl)ccc4F)CC3)c2O1 [Compound 8, 5-Chloro-2-fluoro-N-{1-[2-(2,2-dimethyl-2,3-dihydrobenzofuran-7-yloxy)ethyl]piperidin-4-yl}benzenesulfonamide]
Ki (α1-AR): 1260 ± 101 nM | Kb (α2B-adrenergic receptor): 142 ± 31 nM | 5-HT1AR antagonist property (5-HT1AR): no antagonist property | EC50 (5-HT1AR): > 4 µM | influence on spontaneous locomotor activity (sedation) (Albino Swiss mice; [1]): no influence on the spontaneous locomotor activity

CC1(C)Cc2cccc(OCCN3CCC(NS(=O)(=O)c4cncc5ccccc45)CC3)c2O1 [Compound 13, 4-Isoquinoline-N-{1-[2-(2,2-dimethyl-2,3-dihydrobenzofuran-7-yloxy)ethyl]piperidin-4-yl}sulfonamide]
Ki (α1-AR): 429 ± 66 nM | Kb (α2B-adrenergic receptor): 27 ± 13 nM | 5-HT1AR antagonist property (5-HT1AR): no antagonist property | EC50 (5-HT1AR): > 4 µM | influence on spontaneous locomotor activity (sedation) (Albino Swiss mice; 1 mg/kg): without affecting locomotor activity | influence on spontaneous locomotor activity (sedation) (Albino Swiss mice; higher doses (above 1 mg/kg)): caused sedation
